Results published in US8124778B2, “Tricyclic inhibitors of fatty acid amide hydrolase” (The Scripps Research Institute, priority 2007, dated 2012).

Tests used:
[1] = target: T1, purified recombinant rat FAAH (Rattus norvegicus, UniProt P97612); assay: FAAH inhibition enzyme assay (14C-oleamide hydrolysis, Dixon plot); format: biochemical; conditions: for FAAH inhibitory potency (in words) / fold less effective than m-methylsulfone 5ll: rat FAAH; for Ki: recombinant rat FAAH, 14C-oleamide, pH 9.0, 20-23 °C; for fold less effective than m-methylsulfone 5ll: o- and p-methylsulfone vs 5ll
T1 construct: The truncated rat FAAH (rFAAH) was expressed in E. coli and purified as described; made in house; host or cells: E. coli
T1 sequence (P97612 30-579 limits assumed): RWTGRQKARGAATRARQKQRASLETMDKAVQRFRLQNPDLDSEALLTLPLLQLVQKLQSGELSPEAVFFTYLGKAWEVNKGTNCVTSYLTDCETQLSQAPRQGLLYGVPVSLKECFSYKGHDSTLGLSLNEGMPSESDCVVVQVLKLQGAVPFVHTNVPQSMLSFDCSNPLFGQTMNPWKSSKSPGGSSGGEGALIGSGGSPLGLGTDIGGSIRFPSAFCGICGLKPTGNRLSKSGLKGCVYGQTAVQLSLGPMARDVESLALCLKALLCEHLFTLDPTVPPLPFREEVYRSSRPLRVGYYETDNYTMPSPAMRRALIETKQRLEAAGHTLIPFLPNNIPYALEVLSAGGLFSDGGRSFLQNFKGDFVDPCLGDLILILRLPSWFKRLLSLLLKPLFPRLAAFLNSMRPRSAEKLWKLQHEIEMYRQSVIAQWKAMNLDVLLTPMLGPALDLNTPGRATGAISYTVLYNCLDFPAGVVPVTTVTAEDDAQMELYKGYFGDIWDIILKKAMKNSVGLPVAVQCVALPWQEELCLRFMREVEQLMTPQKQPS
Method: Enzyme assays were performed at 20-23° C. with purified recombinant rat FAAH expressed in E. coli (Patricelli, M. P.; Lashuel, H. A.; et al. Biochemistry 1998, 37, 15177-15187) (unless indicated otherwise) or with solubilized COS-7 membrane extracts from cells transiently transfected with human FAAH cDNA (Giang, D. K.; Cravatt, B. F. Proc. Natl. Acad. Sci. U.S.A. 1997, 94, 2238-2242) (where specifically indicated) in a buffer of 125 mM Tris/1 mM EDTA/0.2% glycerol/0.02% Triton X-100/0.4 mM Hepes, pH 9.0 buffer (Patricelli, M. P.; Patterson, J. P.; et al. Bioorg. Med. Chem. Lett. 1998, 8, 613-618). The initial rates of hydrolysis (≦10-20% reaction) were monitored using enzyme concentrations at least three times below the measured Ki by following the breakdown of ^14C-oleamide and Ki's (standard deviations are provided in Supporting Information tables) were established as described (Dixon plot) (Boger, D. L.; Sato, H.; et al. Proc. Natl. Acad. Sci. U.S.A. 2000, 97, 5044-5049). Lineweaver-Burk analysis previously established reversible, competitive inhibition (Boger, D. L.; Miyauchi, H.; et al. J. Med. Chem. 2005, 48, 1849-1856).
FAAH Inhibition. ^14C-labeled oleamide was prepared from ^14C-labeled oleic acid as described (Cravatt, B. F.; et al. Science 1995, 268, 1506-1509). The truncated rat FAAH (rFAAH) was expressed in E. coli and purified as described (Patricelli, M. P.; Lashuel, H. A.; et al. Biochemistry 1998, 37, 15177-15187). The purified recombinant rFAAH was used in the inhibition assays unless otherwise indicated. The full-length human FAAH (hFAAH) was expressed in COS-7 cells as described (Giang, D. K.; Cravatt, B. F. Proc. Natl. Acad. Sci. U.S.A. 1997, 94, 2238-2242), and the lysate of hFAAH-transfected COS-7 cells was used in the inhibition assays where explicitly indicated.
The inhibition assays were performed as described (Cravatt, B. F.; et al. Science 1995, 268, 1506-1509). In brief, the enzyme reaction was initiated by mixing 1 nM of rFAAH (800, 500, or 200 pM rFAAH for inhibitors with Ki≦1-2 nM) with 10 μM of ^14C-labeled oleamide in 500 μL of reaction buffer (125 mM TrisCl, 1 mM EDTA, 0.2% glycerol, 0.02% Triton X-100, 0.4 mM Hepes, pH 9.0) at room temperature in the presence of three different concentrations of inhibitor. The enzyme reaction was terminated by transferring 20 μL of the reaction mixture to 500 μL of 0.1 N HCl at three different time points. The ^14C-labeled oleamide (substrate) and oleic acid (product) were extracted with EtOAc and analyzed by TLC as detailed (Cravatt, B. F.; et al. Science 1995, 268, 1506-1509). The Ki of the inhibitor was calculated using a Dixon plot as described (standard deviations are provided in the Supporting Information tables) (Boger, D. L.; Sato, H.; et al. Proc. Natl. Acad. Sci. U.S.A. 2000, 97, 5044-5049). Lineweaver-Burk analysis was performed as described confirming competitive, reversible inhibition (Boger, D. L.; Miyauchi, H.; et al. J. Med. Chem. 2005, 48, 1849-1856).

Structure (SMILES)	FAAH inhibitory potency (in words) [1]	further results
O=C(c1ncc(-c2ccccn2)o1)C1CCCC1 [14e, Cyclopentyl(5-(pyridin-2-yl)oxazol-2-yl)methanone]	loss of activity	–
O=C(CCCCC#Cc1cccc(Cl)c1)c1ncc(-c2ccccn2)o1 [4hh, 1-Oxo-1-[5-(2-pyridyl)oxazol-2-yl]-7-(3-chlorophenyl)hept-6-yne]	–	melting point: 50 to 51 °C
O=C(CCCCCCc1cccc(Cl)c1)c1ncc(-c2ccccn2)o1 [5hh, 1-Oxo-1-[5-(2-pyridyl)oxazol-2-yl]-7-(3-chlorophenyl)heptane]	–	Ki [1]: 0.9 nM; melting point: 91 to 92 °C
CS(=O)(=O)c1ccccc1CCCCCCC(=O)c1ncc(-c2ccccn2)o1 [5kk, 1-Oxo-1-[5-(2-pyridyl)oxazol-2-yl]-7-(2-(methylsulfonyl)phenyl)heptane]	–	fold less effective than m-methylsulfone 5ll [1]: approximately 10 fold
CCCCCCc1cccc(CCCCCCC(=O)c2ncc(-c3ccccn3)o2)c1 [5oo, 1-Oxo-1-[5-(2-pyridyl)oxazol-2-yl]-7-(3-hexylphenyl)heptane]	less effective	–
O=C(CS(=O)(=O)CCCCc1ccccc1)c1ncc(-c2ccccn2)o1 [12d, 2-(4-Phenylbutylsulfonyl)-1-(5-(pyridin-2-yl)oxazol-2-yl)ethanone]	significant loss in potency	–
O=C(CCCCCCc1ccsc1)c1ncc(-c2ccccn2)o1 [5b, 1-Oxo-1-[5-(2-pyridyl)oxazol-2-yl]-7-(3-thienyl)heptane]	effective inhibitors	–
O=C(CCl)c1ncc(-c2ccccn2)o1 [14f, 2-Chloro-1-(5-(pyridin-2-yl)oxazol-2-yl)ethanone]	submicromolar inhibitor of FAAH	–
O=C(CCCCCCc1cccs1)c1ncc(-c2ccccn2)o1 [5a, 1-Oxo-1-[5-(2-pyridyl)oxazol-2-yl]-7-(2-thienyl)heptane]	effective inhibitors	–
O=C(CCCCc1ccccc1)CC(=O)c1ncc(-c2ccccn2)o1 [14g, 7-Phenyl-1-(5-(pyridin-2-yl)oxazol-2-yl)heptane-1,3-dione]	significant loss of inhibitory potency	–
CCCCCCc1ccc(CCCCCCC(=O)c2ncc(-c3ccccn3)o2)cc1 [5nn, 1-Oxo-1-[5-(2-pyridyl)oxazol-2-yl]-7-(4-hexylphenyl)heptane]	significant potency	–
O=C(c1ncc(-c2ccccn2)o1)C(O)CCCCCc1ccccc1 (stereo not drawn) [13d, 2-Hydroxy-7-phenyl-1-(5-(pyridin-2-yl)oxazol-2-yl)heptan-1-one]	–	Ki [1]: 8 nM
O=C(CCCCSCc1ccccc1)c1ncc(-c2ccccn2)o1 [12k, 5-(Benzylthio)-1-(5-(pyridin-2-yl)oxazol-2-yl)pentan-1-one]	significant potency	–
CS(=O)(=O)c1cccc(CCCCCCC(=O)c2ncc(-c3ccccn3)o2)c1 [5ll, 1-Oxo-1-[5-(2-pyridyl)oxazol-2-yl]-7-(3-(methylsulfonyl)phenyl)heptane]	significant potency	–
CS(=O)(=O)c1ccc(CCCCCCC(=O)c2ncc(-c3ccccn3)o2)cc1 [5mm, 1-Oxo-1-[5-(2-pyridyl)oxazol-2-yl]-7-(4-(methylsulfonyl)phenyl)heptane]	–	fold less effective than m-methylsulfone 5ll [1]: approximately 10 fold

The next lines start with results.

FAAH inhibitory potency (in words) [1]	Structure (SMILES)	further results
significant potency	O=C(CCCCCSc1ccccc1)c1ncc(-c2ccccn2)o1 [12p, 6-(Phenylthio)-1-(5-(pyridin-2-yl)oxazol-2-yl)hexan-1-one]	Ki [1]: 3 nM
substantial loss in inhibitory potency	OC(CCCCc1ccccc1)CC(O)c1ncc(-c2ccccn2)o1 (stereo not drawn) [14h, 7-Phenyl-1-(5-(pyridin-2-yl)oxazol-2-yl)heptane-1,3-diol]	–
effective inhibitors	O=C(CCCCCCc1ccc2ccccc2c1)c1ncc(-c2ccccn2)o1 [5d, 1-Oxo-1-[5-(2-pyridyl)oxazol-2-yl]-7-(2-naphthyl)heptane]	–
significant potency	O=C(CSCCCCc1ccccc1)c1ncc(-c2ccccn2)o1 [12b, 2-(4-Phenylbutylthio)-1-(5-(pyridin-2-yl)oxazol-2-yl)ethanone]	–
substantial loss in inhibitory potency	CN(CCCCc1ccccc1)CC(O)c1ncc(-c2ccccn2)o1 (stereo not drawn) [14i, 2-(Methyl(4-phenylbutyl)amino)-1-(5-(pyridin-2-yl)oxazol-2-yl)ethanol]	–
effective inhibitors	O=C(CCCCCCc1cccc2ccccc12)c1ncc(-c2ccccn2)o1 [5c, 1-Oxo-1-[5-(2-pyridyl)oxazol-2-yl]-7-(1-naphthyl)heptane]	Ki [1]: 2.6 nM
loss of activity	O=C(c1ncc(-c2ccccn2)o1)C1CC1 [14d, Cyclopropyl(5-(pyridin-2-yl)oxazol-2-yl)methanone]	–
lower ability to inhibit FAAH	O=C(CCC(=O)c1ncc(-c2ccccn2)o1)NCCc1ccccc1 [13a, 4-Oxo-N-phenethyl-4-(5-(pyridin-2-yl)oxazol-2-yl)butanamide]	–
lower potency	O=C(CCC(O)CCCc1ccccc1)c1ncc(-c2ccccn2)o1 (stereo not drawn) [13f, 4-Hydroxy-7-phenyl-1-(5-(pyridin-2-yl)oxazol-2-yl)heptan-1-one]	–
